Literature values as cited in patent publication US20160374909A9, “Treating Cariogenic diseased oral biofilm with elevated pH” (Dental Alliance Holdings, LLC dba Oral Bio Tech, priority 2006, published 2016).

Legend:
Mutans streptococci = settings: rinse or varnish
Lactobacilli = settings: rinse or varnish

[H]/N=C(\N/C(=N/[H])NCCCCCCNC(=N)NC(=N)Nc1ccc(Cl)cc1)Nc1ccc(Cl)cc1 [chlorhexidine]
effect against Mutans streptococci (Mutans streptococci): effective
effect against Lactobacilli (Lactobacilli): no effect
